Source: patent US7339023B2, “Partial peptide mimetics and methods” (Regents of the University of Minnesota, priority 2002, dated 2008)

Key:
[1] = test system: bFGF-stimulated human umbilical vascular EC (HUVEC); assay: EC proliferation measurement, [3H]-thymidine incorporation assay; assay type: cell-based; conditions: for IC50: bFGF-stimulated (10 ng/ml) HUVEC, 3H-thymidine incorporation, 3 days; for EC Proliferation % Inhibition at 25 μM: bFGF-stimulated HUVEC
Experimental: Human umbilical vein derived EC (HUVEC) were harvested from normal human umbilical cords by perfusion with 0.125% trypsin/EDTA. Harvested HUVECs were cultured in gelatin coated tissue culture flasks and subcultured 1:3 once a week in culture medium (RPMI-1640 with 20% human serum (HS), supplemented with 2 mM glutamine and 100 U/ml penicillin and 0.1 mg/ml streptomycin). Bovine capillary EC (BCE) were kindly provided by Dr. M. Furie (State University of New York, Stony Brook, USA) and were cultured in fibronectin coated tissue culture flasks in RPMI-1640 medium containing 10% FCS, glutamine and antibiotics.
EC proliferation was measured using a [^3H]-thymidine incorporation assay. Proliferation of bFGF-stimulated (10 nanogram per milliliter (ng/ml)) human umbilical vascular EC (HUVEC) cultures was measured by quantification of ^3H-thymidine incorporation. Proliferation is expressed as mean counts per minute (cpm) of quadruplicate cultures in three independent experiments (±SEM). EC were seeded at 5000 cells/well in flat-bottomed tissue culture plates and grown for 3 days in the absence or presence of regulators, in culture medium. During the last 6 hours of the assay, the culture was pulsed with 0.5 μCi [methyl-^3H]-thymidine/well. Human umbilical vein derived EC (HUVEC) were harvested from normal human umbilical cords by perfusion with 0.125% trypsin/EDTA. Harvested HUVECs were cultured in gelatin coated tissue culture flasks and subcultured 1:3 once a week in culture medium (RPMI-1640 with 20% human serum (HS), supplemented with 2 mM glutamine and 100 U/ml penicillin and 0.1 mg/ml streptomycin).

[2] = test system: bovine EC (BCE); assay: In vitro angiogenesis assay, collagen gel-based sprout formation; assay type: cell-based; parameters: key to % Sprouting: —: No effect on the assay; conditions: for % Sprouting: BCE on cytodex-3 beads in collagen gel, 20 ng/mL bFGF, 24 hours, * = significant inhibition (p < 0.03); for Sprouting in collagen gel-based sprout formation assay: versus control showing numerous sprouts, data not shown
Experimental: Sprouting and tube formation of bovine EC (BCE) were studied using cytodex-3 beads overgrown with BCE in a 3-dimensional collagen gel (vitrogen-100, Collagen Corp., Fremont, Calif., USA) as described in D. Van der Schaft et al., Blood, 96,176-181 (2000). Following gelation, culture medium containing 20 ng/mL bFGF, with or without […] or DBF analogs, was applied on top of the gel. After 24 hours of cell culture at 37° C., photographs were made (not shown). The amount of sprouting in each well (i.e., the total length of the sprouts) was quantified by the computer program NIH image. To quantify differences in sprouting and tube formation, statistical analysis was performed using the Mann-Whitney U test.

[3] = test system: MA148 human ovarian carcinoma; assay: MA148 xenograft ovarian carcinoma tumor model in athymic mice, tumor volume; conditions: for Inhibition of tumor growth ten days post-treatment: at sacrifice
Experimental: In all studies, female athymic nude mice (nu/nu, 5-6 weeks old) were used. These mice were purchased from the National Cancer Institute and allowed to acclimatize to local conditions for at least one week. Animals were given water and standard chow ad libitum, and were kept on a 12-hour light/dark cycle. […] Compounds were diluted in 100 mM SDS and administered using osmotic mini-pumps (Durect, Cupertino, Calif.). Exponentially growing MA148 human ovarian carcinoma cells, kindly provided by Prof. Ramakrishnan (R. P. Dings et al., Cancer Res., 63, 382-385 (2003)) were cultured in RPMI 1640 medium (Life Technologies, Grand Island, N.Y.). This medium was supplemented with 10% fetal bovine serum and 1% penicillin/streptomycin (Cellgro, Mediatech, Washington, D.C.) at 37° C. and 5% CO2. One hundred microliters (100 μL) of this tumor cell suspension (2×10^7 cells/ml) was then injected subcutaneously into the right flank of each mouse. Pumps were implanted into the left flank of mice for subcutaneous administration of compound over a 28-day treatment span.
Two variants of this model were used: prevention and intervention. For the prevention variant, treatment was initiated at the time of inoculation with MA148 cells. For the intervention variant, tumors were allowed to grow to an average size of 50 mm^3 (usually day 7 post inoculation) before treatment was initiated. With either variant, animals were randomized prior to the initiation of treatment. Treatment was administered via osmotic mini-pumps (Durect, Cupertino, Calif.), which were implanted subcutaneously in the left flank of mice. […] In each study, control groups of animals were administered either PBS or PBS containing human serum albumin.
Tumor volume was determined by measuring the diameters of tumors using calipers (Scienceware, Pequannock, N.J.) using the equation for the volume of a spheroid: (a^2×b×π)/6, where ‘a’ is the width and ‘b’ the length of the tumor. Measurements were performed two or three times per week. At the conclusion of an experiment, tumor weights were also taken following excision of the tumors from euthanized animals.

[4] = test system: MA148 human ovarian carcinoma tumors; assay: Immunohistochemistry of tumor sections (CD31 microvessel density, PCNA proliferation, TUNEL apoptosis); assay type: in vivo, mice; conditions: for Vessel density relative to control: anti-CD31 staining of tumor cross-sections; for End Points (mean number of vessel end points) / Branch Points (mean number of vessel branch points/nodes per image) / Proliferation (PCNA-staining, white pixels per field) / Vessel Density (CD31-staining, white pixels per field) / Vessel Length (mean total vessel length per image): tumors of treated mice, ± standard error; for End Points (mean number of vessel end points): after skeletonization
Experimental: Immunohistochemistry was used to assess microvessel density and the extent of total cell apoptosis. Tumor tissue was embedded in tissue freezing medium (Miles Inc, Elkart, Ind.) and shock frozen in liquid nitrogen. […] sections of tissue were prepared for immunohistochemical analysis. For this, tissue sections were brought to room temperature, air dried overnight, and then fixed in acetone for 10 minutes. Slides were allowed to air dry for at least 30 minutes and were washed three times for 5 minutes each in phosphate-buffered saline (PBS, pH 7.4). Samples were then blocked with PBS containing 0.1% bovine serum albumin and 3% human serum albumin for at least 30 minutes at room temperature in a humidified box. Samples were subsequently incubated with phycoerytrin (PE)-conjugated monoclonal antibody to CD31 (PECAM-1) in a 1:50 dilution (Pharmigen, San Diego, Calif.) to stain for microvessel density. After 1-hour incubation at room temperature, slides were washed with PBS and immediately imaged using an Olympus BX-60 fluorescence microscope at 200× magnification.
To assess the extent of total cell apoptosis, tissue sections were stained by using the TUNEL (terminal deoxyribonucleotidyl transferase-mediated dUTP-nick-end labeling) assay, which was performed according to the manufacturer's instructions (in situ cell death detection kit, fluorescein; TUNEL, Roche). Digital images were stored and processed using Adobe Photoshop (Adobe Inc., Mountain View Calif.).
Quantification of microvessel density, the rate of proliferation and total cell apoptosis were determined as described earlier (R. Wild et al., Microvasc. Res., 59, 368-376 (2000)). Statistical analysis was performed using the Student's t test.

Substance | IC50 [1] [µM] | % Sprouting [2] | EC Proliferation % Inhibition at 25 μM [1] [%] | other results
ANIKLSVQMKL-[DBF]-I [11DBF1] | 23 ± 5 |  |  | 
ANIKLSVQMKL-[DBF]-IIVK [11DBF4] | 35 |  |  | 
ANIKLSVQMKL-[DBF]-IIVKLN [11DBF6] | 22 |  |  | 
ANIKLSVQMKL-[DBF]-IIVKLND [11DBF7] | 12 | 23 ± 10%* | 92 | Sprouting in collagen gel-based sprout formation assay [2]: highly reduced sprouting; Inhibition of tumor growth at the end of the four-week administration period (day 35) ([3]; intervention, day 35): about 50%; Inhibition of tumor growth ten days post-treatment ([3]; intervention): about 50%; Reduction of tumor volume relative to control animals ([3]; prevention model: treatment from time of inoculation, subcutaneous mini-pumps, 10 mg/kg/day): up to 90%; Vessel density relative to control [4]: significantly reduced; End Points (mean number of vessel end points) [4]: 21.2 ± 3.3 mean pixel counts per image; Branch Points (mean number of vessel branch points/nodes per image) [4]: 3.1 ± 0.9 mean pixel counts per image; Proliferation (PCNA-staining, white pixels per field) [4]: 553 ± 75 mean pixel counts per image; Vessel Density (CD31-staining, white pixels per field) [4]: 2879 ± 385 mean pixel counts per image; Vessel Length (mean total vessel length per image) [4]: 3.0 ± 0.6 mean pixel counts per image
IKLSVQMKL-[DBF]-IIVKLND [9DBF7] | 20 | 76 ± 40%* | 57 | 
L-[DBF]-IIVKLND [1DBF7] | > 25 | — | 0 | 
MKL-[DBF]-IIVKLND [3DBF7] | > 25 | 84 ± 30% | 0 | 
NIKLSVQMKL-[DBF]-IIVKLND [10DBF7] | 12 | 57 ± 17.5%* | 69 | 
QMKL-[DBF]-IIVKLND [4DBF7] | 25 | 99 ± 5% | 46 | 
SVQMKL-[DBF]-I [6DBF1] | 76.1 ± 10.9 |  |  | 
SVQMKL-[DBF]-II [6DBF2] | > 25 |  |  | 
SVQMKL-[DBF]-IIV [6DBF3] | > 25 |  |  | 
SVQMKL-[DBF]-IIVK [6DBF4] | > 25 |  |  | 
SVQMKL-[DBF]-IIVKLN [6DBF6] | 42 |  |  | 
SVQMKL-[DBF]-IIVKLND [6DBF7] | 15 | 60 ± 12%* | 68 | Effect on tube formation [2]: significant inhibitory effect on tube formation; Sprouting in collagen gel-based sprout formation assay [2]: highly reduced sprouting; Inhibition of tumor growth ten days post-treatment ([3]; intervention): about 50%; Number of apoptotic tumor cells ([4]; TUNEL, control 311±103): 851±162; Vessel density relative to control [4]: significantly reduced; End Points (mean number of vessel end points) [4]: 21.7 ± 2.6 mean pixel counts per image; Branch Points (mean number of vessel branch points/nodes per image) [4]: 2.3 ± 1.1 mean pixel counts per image; Proliferation (PCNA-staining, white pixels per field) [4]: 501 ± 68 mean pixel counts per image; Vessel Density (CD31-staining, white pixels per field) [4]: 2213 ± 256 mean pixel counts per image; Vessel Length (mean total vessel length per image) [4]: 2.5 ± 0.4 mean pixel counts per image
